In patent US20250197387A1, “BCL-XL DEGRADERS AND USES THEREOF” (Kymera Therapeutics, Inc., priority 2021, published 2025) one finds IC50, Dmax and DC50 data, which are given here for 11 compounds.

Structures are written as SMILES.

In one experiment the test system is MOLT-4 cells. As to the kind of experiment: CTG (CellTiter-Glo) cell viability assay, MOLT-4. The note with it: Homo sapiens, MOLT-4, 72 h, 3 day incubation, read-out: CTG Cell Viability Assay - MOLT-4 3 day: Average external-IC50. In kind it is cell-based. As to the method: Compound-mediated viability effect on MOLT-4 and Caki-2 was quantitatively determined using the CellTiter-Glo® Luminescent Cell Viability Assay kit from Promega (Catalog number G7570) following manufacturer's recommended procedures. Briefly, MOLT-4 and Caki-2 cells were seeded into 384 well plates (Grenier Bio-One, Catalog number 781080) with a density of 10,000 cells per well. Compounds were then added to the assay plate with final top concentration of 10 μM and 1:3 dilution series with total of 9 doses. The final DMSO concentration is normalized to 0.2%. The assay plates were incubated at 37° C., for 3 days under 5% CO2. Then the assay plate was equilibrated at room temperature for 10 minutes. To determine cell viability, 30 uL CellTiter Glo reagent was added to each well and the assay plate was centrifuged at 1000 rpm for 30 second, incubated at room temperature for 10 min, and analyzed by detecting the luminescence using a multimode plate reader (EnVision 2105, PerkinElmer). The data was then analyzed by software Prism 7.0 from GraphPad and the dose response curves are fit using a three-parameter logistic equation to calculate IC50.
The letter codes for MOLT-4 IC50 include: A (<0.1 μM); B (0.1-1.0 μM); C (>1.0-3.0 μM); and D (>3.0 μM). The letter codes for Caki-2 IC50 include: A (<0.1 μM); B (0.1-1.0 μM); C (>1.0-10.0 μM); and D (>10.0 μM).

The target of the next experiment is T1, BCL-XL (Homo sapiens, UniProt Q07817).
T1 construct: endogenous in cells; host or cells: MOLT-4
T1 sequence (Q07817 whole entry): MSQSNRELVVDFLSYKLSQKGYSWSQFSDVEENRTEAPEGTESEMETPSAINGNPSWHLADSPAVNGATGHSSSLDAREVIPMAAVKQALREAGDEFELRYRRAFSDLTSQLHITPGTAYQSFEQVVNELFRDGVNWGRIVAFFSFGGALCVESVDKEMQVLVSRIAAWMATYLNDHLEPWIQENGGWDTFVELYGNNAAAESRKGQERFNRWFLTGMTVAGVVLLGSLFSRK
As to the kind of experiment: Bcl-xL ELISA degradation in MOLT-4 cells, 6 h. In kind it is cell-based. The conditions noted are these: for DC50: read-out: Bcl-xL ELISA in MOLT-4 degradation 6 h: Mean external-Abs DC50. As to the method:
The letter codes for BCL-XL DC50 include: A (<0.01 μM); B (0.01-0.1 μM); C (>[…]); D (>0.5-1.0 μM); and E (>1.0 μM). The letter codes for Dmax % include A (>75%); B (50 to 75%); C (<50%).
In general terms: An ELISA detects its analyte on a solid surface through an enzyme-linked reagent.

For `Cc1ncsc1-c1ccc([C@H](C)NC(=O)[C@@H]2C[C@@H](O)CN2C(=O)[C@@H](NC(=O)C2CCN(c3ccc(S(=O)(=O)NC(=O)c4nc(N5CCc6cccc(C(=O)Nc7nc8ccccc8s7)c6C5)ccc4-c4cccc(OC(C)C)c4C)cc3)CC2)C(C)(C)C)cc1` [I-305], the IC50 in the experiment on MOLT-4 cells is 1000 to 3000 nM. Also, on BCL-XL, the Dmax was less than 50% and the DC50 is more than 1000 nM.

Turning to `Cc1ncsc1-c1ccc([C@H](C)NC(=O)[C@@H]2C[C@@H](O)CN2C(=O)[C@@H](c2cc(N3CCN(c4ccc(S(=O)(=O)NC(=O)c5nc(N6CCc7cccc(C(=O)Nc8nc9ccccc9s8)c7C6)ccc5-c5cnn(CC6CCCCC6)c5C)cc4)CC3)no2)C(C)C)cc1` [I-214], the IC50 in the experiment with MOLT-4 cells lay within 100 to 1000 nM. Moreover, at BCL-XL, the Dmax is more than 75% and the DC50 fell in the range of 10 to 100 nM.

Regarding `Cc1ncsc1-c1ccc([C@H](C)NC(=O)[C@@H]2C[C@@H](O)CN2C(=O)[C@@H](NC(=O)CCCCN(C)CCCCNC(=O)c2nc(N3CCc4cccc(C(=O)Nc5nc6ccccc6s5)c4C3)ccc2-c2cnn(CC3CCCCC3)c2C)C(C)(C)C)cc1` [I-221], the IC50 in the experiment on MOLT-4 cells is more than 3000 nM. On BCL-XL, the Dmax is less than 50% and the DC50 was more than 1000 nM.

Regarding `Cc1ncsc1-c1ccc(CNC(=O)[C@@H]2C[C@@H](O)CN2C(=O)[C@@H](NC(=O)C2(F)CC2)C(C)(C)C)c(OCCCCCCNCc2nc(N3CCc4cccc(C(=O)Nc5nc6ccccc6s5)c4C3)ccc2-c2cnn(CC3CCCCC3)c2C)c1` [I-222], the half-inhibitory concentration (IC50) in the experiment on MOLT-4 cells lay in the range of 1000 to 3000 nM. At BCL-XL, the Dmax was less than 50%.

As to `Cc1ncsc1-c1ccc([C@H](C)NC(=O)[C@@H]2C[C@@H](O)CN2C(=O)[C@H](c2cc(OCC3CCN(CCNC(=O)c4nc(N5CCc6cccc(C(=O)Nc7nc8ccccc8s7)c6C5)ccc4-c4cnn(CC5CCCCC5)c4C)CC3)no2)C(C)C)cc1` [I-288], the IC50 in the experiment on MOLT-4 cells is 100 to 1000 nM. For the same compound, at BCL-XL, the Dmax was 50 to 75% and the DC50 is 500 to 1000 nM.

With `Cc1ncsc1-c1ccc([C@H](C)NC(=O)[C@@H]2C[C@@H](O)CN2C(=O)[C@@H](NC(=O)Cc2ccc(S(=O)(=O)NC(=O)c3nc(N4CCc5cccc(C(=O)Nc6nc7ccccc7s6)c5C4)ccc3-c3cnn(CC4CCCCC4)c3C)cc2)C(C)(C)C)cc1` [I-287], in the experiment with MOLT-4 cells, the IC50 was in the range of 100 to 1000 nM. Also, on BCL-XL, the Dmax was more than 75% and the DC50 is 10 to 100 nM.

As to `Cc1ncsc1-c1ccc([C@H](C)NC(=O)[C@@H]2C[C@@H](O)CN2C(=O)[C@@H](c2cc(OC3CCN([C@H]4CC[C@H](NC(=O)c5nc(N6CCc7cccc(C(=O)Nc8nc9ccccc9s8)c7C6)ccc5-c5cnn(CC6CCCCC6)c5C)CC4)CC3)no2)C(C)C)cc1` [I-313], in the experiment on MOLT-4 cells, the IC50 was in the range of 1000 to 3000 nM. Further, at BCL-XL, the Dmax was less than 50% and the DC50 was more than 1000 nM.

In the case of `Cc1ncsc1-c1ccc([C@H](C)NC(=O)[C@@H]2C[C@H](O)CN2C(=O)[C@@H](NC(=O)CCCCCS(=O)(=O)NC(=O)c2nc(N3CCc4cccc(C(=O)Nc5nc6ccccc6s5)c4C3)ccc2-c2cnn(CC34CC5CC(CC(C5)C3)C4)c2C)C(C)(C)C)cc1` [I-286], the IC50 in the experiment with MOLT-4 cells was in the range of 100 to 1000 nM. At BCL-XL, the Dmax was in the range of 50 to 75% and the DC50 lay within 10 to 100 nM.

For `Cc1ncsc1-c1ccc(CNC(=O)[C@@H]2C[C@@H](O)CN2C(=O)[C@@H](NC(=O)C2(F)CC2)C(C)(C)C)c(OCCc2ccc(S(=O)(=O)NC(=O)c3nc(N4CCc5cccc(C(=O)Nc6nc7ccccc7s6)c5C4)ccc3-c3cnn(CC4CCCCC4)c3C)cc2)c1` [I-219], in the experiment with MOLT-4 cells, the half-inhibitory concentration (IC50) was in the range of 100 to 1000 nM. Besides, on BCL-XL, the Dmax was more than 75% and the DC50 fell in the range of 10 to 100 nM.

As to `Cc1ncsc1-c1ccc([C@H](C)NC(=O)[C@@H]2C[C@@H](O)CN2C(=O)[C@@H](NC(=O)CCCCCCCOc2nc(N3CCc4cccc(C(=O)Nc5nc6ccccc6s5)c4C3)ccc2-c2cnn(CC3CCCCC3)c2C)C(C)(C)C)cc1` [I-218], the concentration for half-maximal inhibition (IC50) with MOLT-4 cells is more than 3000 nM. The same compound came in with a Dmax at BCL-XL of less than 50%.

Consider `Cc1ncsc1-c1ccc([C@H](C)NC(=O)[C@@H]2C[C@@H](O)CN2C(=O)[C@@H](c2cc(OCC3CCN(CCNC(=O)c4nc(N5CCc6cccc(C(=O)Nc7nc8ccccc8s7)c6C5)ccc4-c4cnn(CC5CCCCC5)c4C)CC3)no2)C(C)C)cc1` [I-289], for which, in the experiment on MOLT-4 cells, the IC50 lay in the range of 100 to 1000 nM. At BCL-XL, the Dmax lay within 50 to 75% and the DC50 lay in the range of 10 to 100 nM.

One may read the IC50 as the concentration that inhibits the measured activity by half. One may read the Dmax as the greatest extent of degradation seen. A high value points to deep degradation. For orientation: DC50 means the concentration giving 50% degradation.
